Test: xn = mol fraction of the nth substance listed
Details: for mass density / viscosity: 100 kPa, Liquid; for mass density: Vibrating tube method; for surface tension liquid-gas: Drop volume

CC12CC3CC(C)(C1)CC(C)(C3)C2 [1,3,5-trimethyladamantane] + CCCCCCCO
Details | mass density, 293.15 K [kg/m3] | mass density, 298.15 K [kg/m3] | mass density, 303.15 K [kg/m3] | mass density, 308.15 K [kg/m3] | mass density, 313.15 K [kg/m3] | surface tension liquid-gas, 298.15 K [mN/m] | viscosity, 293.15 K [mPa·s] | viscosity, 298.15 K [mPa·s] | viscosity, 303.15 K [mPa·s] | viscosity, 308.15 K [mPa·s]
x2 = 0 | 887.48 | 883.99 | 880.47 | 876.94 | 873.4 | 26.17 | 2.601 | 2.338 | 2.118 | 1.93
x2 = 0.1001 | 882.47 | 878.9 | 875.31 | 871.72 | 868.1 | 26.19 | 2.626 | 2.349 | 2.114 | 1.911
x2 = 0.2001 | 877.46 | 873.88 | 870.27 | 866.65 | 863 | 26.22 | 2.775 | 2.469 | 2.212 | 1.992
x2 = 0.3002 | 872.11 | 868.52 | 864.91 | 861.27 | 857.62 | 26.26 | 2.97 | 2.632 | 2.35 | 2.108
x2 = 0.4004 | 866.49 | 862.91 | 859.29 | 855.65 | 851.98 | 26.32 | 3.242 | 2.854 | 2.533 | 2.261
x2 = 0.5001 | 860.53 | 856.94 | 853.32 | 849.68 | – | 26.34 | 3.5 | 3.131 | 2.758 | 2.444
x2 = 0.6002 | 854.11 | 850.53 | 846.91 | 843.28 | – | 26.36 | 4.051 | 3.51 | 3.066 | 2.699
x2 = 0.7001 | 847.23 | 843.66 | 840.05 | 836.41 | – | 26.32 | 4.645 | 3.99 | 3.457 | 3.015
x2 = 0.7999 | 839.77 | 836.22 | 832.63 | 829.02 | – | 26.3 | 5.371 | 4.567 | 3.924 | 3.396
x2 = 0.9002 | 831.44 | 827.93 | 824.38 | 820.8 | – | 26.29 | 6.221 | 5.229 | 4.464 | 3.841
